Test results from the supplement of paper PMC11451515.

Legend:
Assay in all cases: AUC of viability dose-response curve (% viability x log10 dose units); higher = less sensitive
Settings in all cases: 48 h
NOMO1 = test system: NOMO1
Procedure, shortened: (§1)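 Medium-adapted leukemia cells in 1536-well plates, at 500 or 1000 cells/well, were incubated for 48 h at 37°C with library compounds in DMSO at 11 threefold doses from 47 μM to 0.79 nM. CellTiter-Glo One luminescence normalised per plate to DMSO and cell-free wells was fitted with a four-parameter log-logistic model over log10 doses. Area under the curve was integrated from this fit by trapezoidal rule, with curves beyond full viability scaled and failed quality-control curves removed.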

P12-Ichikawa = test system: P12-Ichikawa
Procedure, shortened: as §1

SEM cells = test system: SEM cells
Procedure, shortened: as §1

[1] = RPMI 5 mM glucose + 10% dialyzed FBS

SMILES	AUC of viability dose-response curve (NOMO1; HPLM + 10% dialyzed FBS)	AUC of viability dose-response curve (NOMO1; RPMI 5 mM glucose + 10% FBS)	AUC of viability dose-response curve (NOMO1; [1])	AUC of viability dose-response curve (P12-Ichikawa; HPLM + 10% dialyzed FBS)	AUC of viability dose-response curve (P12-Ichikawa; RPMI 5 mM glucose + 10% FBS)	AUC of viability dose-response curve (P12-Ichikawa; [1])	AUC of viability dose-response curve (SEM cells; HPLM + 10% dialyzed FBS)	AUC of viability dose-response curve (SEM cells; RPMI 5 mM glucose + 10% FBS)	AUC of viability dose-response curve (SEM cells; [1])
COC1(C[S+]([O-])c2ccccc2)CCN(CCc2c[nH]c3ccc(F)cc23)CC1 (stereo unspecified)	418	469	460	455	408	451	445	471	456
Cc1ncc([N+](=O)[O-])n1CCO	467	462	461	477	472	469	467	477	449
C[S+]([O-])c1ccc(-c2nc(-c3ccc(F)cc3)c(-c3ccncc3)[nH]2)cc1 (stereo unspecified)	358	357	334	380	359	367	324	314	324
CN1C(=O)/C=C(/NCCN(CCO)CCCC2=CC=C(C=C2)[N+]([O-])=O)N(C)C1=O	463	473	443	447	443	441	463	450	454
Nc1nc(OCc2ccccc2)c2nc[nH]c2n1	462	459	465	472	470	471	452	429	454
Cc1cc(O)c2c(c1)C(=O)c1cc(O)cc(O)c1C2=O	462	437	454	467	468	449	457	470	469
CC(C)[C@H](CO)Nc1nc(Nc2cccc(Cl)c2)c2ncn(C(C)C)c2n1	304	342	351	385	404	387	316	255	284
OC1=CC=C(C=C1)\C2=C\C(=O)C3=C(O2)C=C(O)C=C3O	451	457	448	467	456	453	462	430	443
COC1=CC=C(C=C1)C2CC(=N/N2C3=CC=C(C=C3)[S+](N)([O-])=O)\C4=CC=CC=C4 (stereo unspecified)	330	355	337	387	354	340	323	293	282
NC\1=N\C(=O)N(\C=C1)[C@H]\2[C@H](O)[C@H](O)C(=C2F)\CO	369	378	369	361	394	389	376	421	353
CC(C)(C)NC(=O)[C@H]1CC[C@H]2[C@@H]3CC[C@H]4NC(=O)\C=C/[C@]4(C)[C@H]3CC[C@]12C	382	365	383	421	421	450	449	457	459
Cc1cc(Cl)ccc1OCCCC(=O)NO	438	428	444	400	380	336	411	418	403
N\C1=N\C2=C(N=C[N]2COC(CO)CO)C(=O)N1	445	449	448	–	–	–	444	387	449
C=CCn1c(=O)c2cnc(Nc3ccc(N4CCN(C)CC4)cc3)nc2n1-c1cccc(C(C)(C)O)n1	310	338	316	336	362	354	299	301	270
CC(=O)O[C@@]12CO[C@@H]1C[C@H](O)[C@]3(C)[C@@H]2[C@H](OC(=O)C4=CC=CC=C4)[C@]5(O)C[C@H](OC(=O)C(O)[C@@H](NC(=O)OC(C)(C)C)C6=CC=CC=C6)C(=C(/[C@@H](O)C3=O)C5(C)C)/C (stereo partly specified)	147	112	118	126	125	174	112	78.5	86.9
C#C[C@]1(O)CC[C@H]2[C@@H]3CCc4cc(OC)ccc4[C@H]3CC[C@@]21C	453	457	457	433	468	471	444	470	471
